Legend:
[1] = target: Beta-1 adrenergic receptor (Homo sapiens, UniProt P08588); test: Binding affinity to human beta1-adrenoceptor by radioligand binding assay
[2] = target: T1, Beta-2 adrenergic receptor (Homo sapiens, UniProt P07550); test: Binding affinity to human beta2-adrenoceptor by radioligand binding assay
Target sequence in this assay (P07550 whole entry): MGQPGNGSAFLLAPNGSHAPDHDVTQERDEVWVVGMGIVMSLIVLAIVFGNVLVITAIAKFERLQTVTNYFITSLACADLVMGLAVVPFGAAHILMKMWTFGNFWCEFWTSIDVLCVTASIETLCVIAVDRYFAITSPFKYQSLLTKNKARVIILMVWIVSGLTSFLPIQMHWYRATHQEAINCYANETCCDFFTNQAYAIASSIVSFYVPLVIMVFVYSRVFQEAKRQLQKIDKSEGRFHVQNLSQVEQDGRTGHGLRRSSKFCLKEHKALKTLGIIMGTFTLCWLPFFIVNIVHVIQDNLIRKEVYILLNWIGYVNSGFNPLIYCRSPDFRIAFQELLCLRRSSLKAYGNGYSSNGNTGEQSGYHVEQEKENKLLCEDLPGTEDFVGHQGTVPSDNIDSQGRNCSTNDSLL

[3] = target: Beta-2 adrenergic receptor (Cavia porcellus) (UniProt Q8K4Z4); test: Agonist activity at beta2-adrenoceptor in guinea-pig tracheal-strip assessed as duration of action on inhibition of electrically-stimulated muscle contraction; assay type: functional, tissue-based; conditions: Trachea
[4] = target: T2, D(2) dopamine receptor (Homo sapiens, UniProt P14416); test: Agonist activity at human dopamine D2 receptor expressed in CHO cells assessed as increase in GTPgamma35S binding by scintillation proximity assay; assay type: functional, cell-based
[5] = target: Beta-2 adrenergic receptor (Cavia porcellus, UniProt Q8K4Z4); test: Agonist activity at beta2-adrenoceptor in guinea-pig tracheal-strip assessed as inhibition of electrically-stimulated muscle contraction; assay type: functional, tissue-based, Trachea
[6] = organism: Homo sapiens; test: Selectivity ratio of Ki for human beta1-adrenoceptor to Ki for human beta2-adrenoceptor
[7] = tested on: Rhesus monkey; test: Bronchorelaxant activity in rhesus monkey assessed as inhibition of methacholine-induced bronchoconstriction; assay type: functional; conditions: Macaca mulatta
[8] = target: T2, D(2) dopamine receptor; test: Intrinsic efficacy at human dopamine D2 receptor expressed in CHO cells assessed as increase in GTPgamma35S binding by scintillation proximity assay relative to dopamine; assay type: functional, cell-based
[9] = target: T1, Beta-2 adrenergic receptor; test: Intrinsic efficacy at beta2-adrenoceptor in human bronchial smooth-muscle cell by cAMP assay; assay type: functional
Target sequence in this assay (P07550 whole entry, looked up): as the sequence (P07550 whole entry) above

[10] = target: T1, Beta-2 adrenergic receptor; test: Kinetic binding affinity to human beta2-adrenoceptor
Target sequence in this assay (P07550 whole entry): as above

[11] = target: T1, Beta-2 adrenergic receptor; test: Ratio of indacaterol Ki to compound Ki for human beta2-adrenoceptor
Target sequence in this assay (P07550 whole entry, looked up): as the sequence (P07550 whole entry) above

[12] = target: T1, Beta-2 adrenergic receptor; test: Agonist activity at beta2-adrenoceptor in human bronchial smooth-muscle cell by cAMP assay; assay type: functional
Target sequence in this assay (P07550 whole entry): as above

[13] = target: T1, Beta-2 adrenergic receptor; test: Ratio of indacaterol EC50 to compound EC50 for beta2-adrenoceptor in human bronchial smooth-muscle cell by cAMP assay; assay type: functional
Target sequence in this assay (P07550 whole entry, looked up): as the sequence (P07550 whole entry) above

Beta-1 adrenergic receptor, sequence (P08588 whole entry): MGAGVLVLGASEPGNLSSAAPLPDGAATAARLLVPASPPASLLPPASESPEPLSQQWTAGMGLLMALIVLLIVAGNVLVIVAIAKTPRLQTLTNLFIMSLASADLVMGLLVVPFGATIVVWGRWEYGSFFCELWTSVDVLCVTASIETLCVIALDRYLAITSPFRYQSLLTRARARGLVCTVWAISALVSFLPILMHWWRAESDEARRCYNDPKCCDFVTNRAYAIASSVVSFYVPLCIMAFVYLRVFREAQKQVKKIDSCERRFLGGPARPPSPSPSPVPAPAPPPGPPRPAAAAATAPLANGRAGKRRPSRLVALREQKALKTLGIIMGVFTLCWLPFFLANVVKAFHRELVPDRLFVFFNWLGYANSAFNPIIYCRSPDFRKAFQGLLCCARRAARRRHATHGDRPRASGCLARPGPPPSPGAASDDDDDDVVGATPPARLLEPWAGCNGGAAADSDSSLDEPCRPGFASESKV
Beta-2 adrenergic receptor (Cavia porcellus), sequence (Q8K4Z4 whole entry, looked up): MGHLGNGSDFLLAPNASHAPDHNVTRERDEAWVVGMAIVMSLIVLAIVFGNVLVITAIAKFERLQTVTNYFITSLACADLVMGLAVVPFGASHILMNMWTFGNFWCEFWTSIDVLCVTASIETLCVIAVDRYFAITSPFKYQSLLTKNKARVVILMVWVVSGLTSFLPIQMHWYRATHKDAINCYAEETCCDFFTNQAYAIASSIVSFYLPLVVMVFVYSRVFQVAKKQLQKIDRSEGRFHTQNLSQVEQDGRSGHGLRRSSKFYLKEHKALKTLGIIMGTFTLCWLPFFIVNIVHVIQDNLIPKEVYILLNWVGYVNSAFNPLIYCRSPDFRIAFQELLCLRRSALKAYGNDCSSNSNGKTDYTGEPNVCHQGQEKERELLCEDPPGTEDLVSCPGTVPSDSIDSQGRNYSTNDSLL
T2 sequence (P14416 whole entry): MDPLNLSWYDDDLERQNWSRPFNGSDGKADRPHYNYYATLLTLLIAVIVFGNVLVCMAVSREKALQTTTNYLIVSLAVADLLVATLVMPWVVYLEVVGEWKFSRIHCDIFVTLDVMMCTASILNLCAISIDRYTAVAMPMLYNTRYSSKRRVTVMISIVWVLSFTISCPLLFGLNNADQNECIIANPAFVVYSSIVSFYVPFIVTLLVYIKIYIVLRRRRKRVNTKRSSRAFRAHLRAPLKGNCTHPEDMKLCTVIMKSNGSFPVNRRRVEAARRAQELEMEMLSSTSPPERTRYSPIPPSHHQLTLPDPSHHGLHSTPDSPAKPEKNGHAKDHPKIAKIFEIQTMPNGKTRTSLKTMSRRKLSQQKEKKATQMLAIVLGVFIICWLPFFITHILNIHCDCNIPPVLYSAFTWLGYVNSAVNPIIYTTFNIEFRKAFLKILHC
Beta-2 adrenergic receptor (Cavia porcellus, UniProt Q8K4Z4), sequence (Q8K4Z4 whole entry): as the sequence (Q8K4Z4 whole entry, looked up) above

Row | Structure (SMILES) | Ki [1] [nM] | Ki [2] [nM] | TIME [3] [h] | Ratio Ki [6] | further results
1 | CCc1cc2c(cc1CC)CC(NCCc1ccc(O)c3[nH]c(=O)ccc13)C2 | 478 | 261 | 2.18 | 1.8 | EC50 [4]: > 10000 nM; IC50 [5]: 240 nM
2 | CCc1cc2c(cc1CC)CC(NC[C@H](O)c1ccc(O)c3c1CCC(=O)N3)C2 | 183 | 45 | 0.542 | 4.1 | ED80 [7]: 0.0532 mg/kg; IC50 [5]: 3.9 nM
3 | CCCCc1ccc2c(c1)CC(NC[C@H](O)c1ccc(O)c3[nH]c(=O)ccc13)C2 (some centres undefined) | 259 | 19.4 | – | 13.4 | –
4 | O=c1[nH]c2c(O)ccc(CCNCCS(=O)(=O)CCCOCCc3ccccc3)c2s1 [SIBENADET] | 3920 | 4 | – | 981 | Efficacy [8]: 106%; EC50 [4]: 4.5 nM
5 | CCc1cc2c(cc1CC)CC(NCC(O)c1ccc(O)c3[nH]c(=O)c(C)cc13)C2 (racemic) | 227 | 382 | – | 0.59 | –
6 | NC(=O)C(c1ccccc1)(c1ccccc1)[C@@H]1CCN(CCc2ccc3c(c2)CCO3)C1 [DARIFENACIN] | – | – | 0.5 | – | Efficacy [9]: 85%
7 | Cc1c(C)c(C)c2c(c1C)CC(NC[C@H](O)c1ccc(O)c3[nH]c(=O)ccc13)C2 | 421 | 175 | – | 2.4 | –
8 | CCc1cc2c(cc1CC)CC(NCC(O)c1c(C)cc(O)c3[nH]c(=O)ccc13)C2 (racemic) | > 10000 | 515 | – | > 19 | –
9 | CCc1cc2c(cc1CC)CC(C)(NC[C@H](O)c1ccc(O)c3[nH]c(=O)ccc13)C2 | 1.9 | 0.6 | – | 3.2 | Efficacy [9]: 116%; Kd [10]: 0.26 nM; Ratio Ki [11]: > 10; EC50 [12]: 0.28 nM; Ratio EC50 [13]: 7.3
